Experimental data published in the NIST ThermoML archive (doi:10.1016/j.jct.2016.10.002).
± gives the expanded uncertainty stated by the source.

Key:
[1] = refractive index (Na D-line) (dimensionless); xn = mol fraction of the nth substance listed; conditions: 303.15 K, 101 kPa, Liquid, Standard Abbe refractometry
[2] = refractive index (Na D-line) (dimensionless); conditions: 303.15 K; 101.33 kPa; Liquid; Standard Abbe refractometry

C[N+](C)(C)CCO.[Cl-] [choline chloride] + OCC(O)CO
refractive index ([1]; x1 = 0.333): 1.4853 ± 0.0007

O=C(O)CC(=O)O [propanedioic acid] + C[N+](C)(C)CCO.[Cl-]
refractive index ([1]; x2 = 0.5): 1.4866 ± 0.0008

O [water]
refractive index [2]: 1.332 ± 0.0007

C[N+](C)(C)CCO.[Cl-] [choline chloride] + OCCO
refractive index ([1]; x1 = 0.333): 1.4691 ± 0.0007
